Data from ChEMBL document CHEMBL1133518, “5-[1'-(2'-N-Arylsulfonyl-1',2',3',4'-tetrahydroisoquinolyl)]-4, 5-dihydro-2(3H)-furanones: positive allosteric modulators of the GABA(A) receptor with a new mode of action” (J Med Chem, 2000).
Activity calls are given as the source filed them. No cut-off for these calls is given here.

Assays:
[1] = molecular target: T1, GABA-A receptor; alpha-1/beta-2/gamma-2 (Rattus norvegicus) (UniProt P18508+P62813+P63138); test: Percent stimulation of Cl- current in Xenopus laevis oocytes expressing rat GABA-A alpha-1-beta-2-gamma-2 subunits at 100 uM; format: functional, cell-based; conditions: Oocyte
[2] = molecular target: T2, GABA-A receptor; anion channel (Rattus norvegicus) (UniProt O09028+P15431+P18506+P18508+P19969+P20236+P23574+P23576+P28471+P28473+P30191+P62813+P63079+P63138+Q91ZM7+Q9ES14); test: (§1) Displacement of [3H]flunitrazepam from GABA-A receptor of rat cerebellum; format: tissue-based; parameters: concentration or dose not given beside the values
[3] = molecular target: T2, GABA-A receptor; anion channel (Rattus norvegicus); test: (§2) Displacement of [3H]flunitrazepam from GABA-A receptor of rat forebrain; parameters: concentration or dose not given beside the values
[4] = molecular target: T2, GABA-A receptor; anion channel (Rattus norvegicus); test: In vitro displacement of [35S]TBPS from Gamma-aminobutyric acid A receptor of rat brain membranes; format: cell membranes; parameters: concentration or dose not given beside the values; conditions: Membrane
[5] = molecular target: T2, GABA-A receptor; anion channel (Rattus norvegicus); test: In vitro displacement of [3H]muscimol from Gamma-aminobutyric acid A receptor of rat brain membranes; format: cell membranes; conditions: Membrane
[6] = molecular target: T2, GABA-A receptor; anion channel (Rattus norvegicus); test: In vitro displacement of [3H]muscimol from Gamma-aminobutyric acid A receptor of rat brain membranes (15% stimulation); format: cell membranes; conditions: Membrane
[7] = molecular target: T2, GABA-A receptor; anion channel (Rattus norvegicus); test: In vitro displacement of [3H]muscimol from Gamma-aminobutyric acid A receptor of rat brain membranes, slight stimulation activity; format: cell membranes; conditions: Membrane
[8] = molecular target: T1, GABA-A receptor; alpha-1/beta-2/gamma-2 (Rattus norvegicus); test: Percent stimulation of 5-alpha-pregnan-3-alpha-ol-20-one elicited Cl- current in Xenopus laevis oocytes expressing rat GABA-A alpha-1-beta-2-gamma-2 subunits at 30 uM; format: functional, cell-based; conditions: Oocyte
[9] = molecular target: T1, GABA-A receptor; alpha-1/beta-2/gamma-2 (Rattus norvegicus); test: Percent stimulation of pentobarbital elicited Cl- current in Xenopus laevis oocytes expressing rat GABA-A alpha-1-beta-2-gamma-2 subunits at 30 uM; format: functional, cell-based; conditions: Oocyte
[10] = molecular target: GABA-A receptor; anion channel; test: as §1; format: tissue-based
[11] = molecular target: GABA-A receptor; anion channel; test: as §2
[12] = molecular target: T2, GABA-A receptor; anion channel (Rattus norvegicus); test: In vitro displacement of [3H]muscimol from Gamma-aminobutyric acid A receptor of rat brain membranes, range 5-10% stimulation; format: cell membranes; conditions: Membrane

SMILES	Stimulation [1]	Displacement [2]	Displacement [3]	Displacement [4]	Displacement [5]	Displacement [6]	Displacement [7]	Stimulation [8]	Stimulation [9]	IC50 [10]	IC50 [11]	Displacement [12]
Cc1ccc(S(=O)(=O)N2CCc3ccccc3[C@@H]2[C@H]2CCC(=O)O2)cc1 (stereo in doubt; 2c)	184%	61%	35%									
O=C1CC[C@H]([C@H]2c3ccccc3CCN2S(=O)(=O)c2ccc(C(F)(F)F)cc2)O1	90%	42%	30%	0%	0%							
O=C1CC[C@H]([C@H]2c3ccccc3CCN2S(=O)(=O)c2ccc3ccccc3c2)O1	118%	14%	9%	0%		15%						
Cc1ccc(S(=O)(=O)N2CCc3ccccc3[C@@H]2[C@H]2CCC(=O)O2)cc1 (stereo in doubt)	859%	67%	49%					644%	588%			
O=C1CC[C@H]([C@H]2c3ccccc3CCN2S(=O)(=O)c2ccc(Cl)cc2)O1 (racemic)	479%	43%	30%	60%			inactive					
O=C1CC[C@H]([C@H]2c3ccccc3CCN2S(=O)(=O)c2ccccc2)O1 (racemic)	423%	74%	66%	50%			inactive					
O=C1CC[C@H]([C@H]2c3ccccc3CCN2C(=O)OCc2ccccc2)O1 (racemic)	351%			0%	0%					0.06 µM	0.16 µM	

More lines, now with the values ahead:

Stimulation [1]	Displacement [2]	Displacement [3]	Displacement [4]	Displacement [5]	Displacement [6]	Displacement [7]	Stimulation [8]	Stimulation [9]	IC50 [10]	IC50 [11]	Displacement [12]	SMILES
353%	66%	47%	25%	0%								O=C1CC[C@H]([C@H]2c3ccccc3CCN2S(=O)(=O)c2cccs2)O1
62%	20%	20%	0%			inactive						CN(C)S(=O)(=O)N1CCc2ccccc2[C@@H]1[C@H]1CCC(=O)O1
32%	26%	20%	0%	0%								CS(=O)(=O)N1CCc2ccccc2[C@@H]1[C@H]1CCC(=O)O1
579%	66%	49%	15%								10%	Cc1ccc(S(=O)(=O)N2CCc3ccccc3[C@@H]2[C@H]2CCC(=O)O2)cc1 (racemic)
